The term IC50 denotes the concentration needed to halve the response being measured.

The target in the assay is T1, HPK1 (Homo sapiens, UniProt Q92918).
T1 construct: purchased Invitrogen
T1 sequence (Q92918 whole entry): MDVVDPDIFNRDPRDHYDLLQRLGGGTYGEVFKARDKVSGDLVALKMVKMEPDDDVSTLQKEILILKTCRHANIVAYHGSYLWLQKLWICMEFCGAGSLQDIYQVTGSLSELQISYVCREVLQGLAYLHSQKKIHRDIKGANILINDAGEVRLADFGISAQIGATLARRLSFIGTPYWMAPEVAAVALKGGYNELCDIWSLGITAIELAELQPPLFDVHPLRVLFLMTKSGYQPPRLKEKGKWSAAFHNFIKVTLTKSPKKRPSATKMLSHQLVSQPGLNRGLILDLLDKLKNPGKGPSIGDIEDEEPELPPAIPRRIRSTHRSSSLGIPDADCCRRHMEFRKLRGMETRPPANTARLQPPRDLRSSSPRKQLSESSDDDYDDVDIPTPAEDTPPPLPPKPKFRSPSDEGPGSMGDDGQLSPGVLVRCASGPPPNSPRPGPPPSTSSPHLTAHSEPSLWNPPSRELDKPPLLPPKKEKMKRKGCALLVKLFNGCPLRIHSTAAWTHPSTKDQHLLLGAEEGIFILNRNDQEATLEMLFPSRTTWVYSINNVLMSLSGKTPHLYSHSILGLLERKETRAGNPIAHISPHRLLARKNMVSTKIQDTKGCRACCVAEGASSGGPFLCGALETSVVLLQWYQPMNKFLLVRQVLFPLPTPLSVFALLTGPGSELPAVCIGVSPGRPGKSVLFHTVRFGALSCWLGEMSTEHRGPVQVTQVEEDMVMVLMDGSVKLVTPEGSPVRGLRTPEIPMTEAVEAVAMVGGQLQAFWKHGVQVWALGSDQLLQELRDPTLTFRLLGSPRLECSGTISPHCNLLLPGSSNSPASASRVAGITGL
Nature of the assay: HPK1 biochemical enzyme assay (microfluidic mobility shift, Caliper). As to conditions: 1.5 nM HPK1 (Invitrogen), 1 mM ATP, 30 min preincubation, 60 min at RT, top concentration 3 μM; read-out: HPK1 1000UMATP caliper IC50. As to the method:
Example 20. HPK1 Biochemical Enzyme Assay
HPK1 biochemical enzyme assay: HPK1 enzyme inhibition was measured using a microfluidic mobility shift assay. Reactions were performed in a 384-well plate, containing 1.5 nM HPK1 (Invitrogen), in assay buffer (Cama Biosciences; pH 7.4). Test compounds were titrated in ten point curves (top final assay concentration 3 μM), and preincubated with enzyme/substrate mix for 30 min prior to initiation of the reaction by addition of ATP (1 mM final concentration) and substrate (1 μM final concentration; Carna Biosciences) diluted in assay buffer supplemented by MgCl2 (final assay concentration of 5 mM). Following 60 min incubation at RT, the reaction was terminated by addition of 60 μl/well termination buffer (Carna Biosciences) and signal determination using a Caliper EZ Reader (Perkin Elmer, UK).
In the case of `O=C1NCc2c(-c3ccncc3)ncc(Nc3ccc(N4CCNCC4)cn3)c21` [Compound I-1, 7-[(5-piperazin-1-yl-2-pyridyl)amino]-4-(4-pyridyl)-2,3-dihydropyrrolo [3,4-c]pyridin-1-one], the IC50 is below 1000 nM.
To `O=C1NCc2c(C3CCOCC3)ncc(Nc3ccc(N4CCNCC4)cn3)c21` [Compound I-2, 7-[(5-piperazin-1-yl-2-pyridyl)amino]-4-tetrahydropyran-4-yl-2,3-dihydropyrrolo [3,4-c]pyridin-1-one] belongs 1000 to 5000 nM; to `O=C1NCc2c(-c3c(F)cccc3F)ncc(Nc3ccc(N4CCNCC4)cn3)c21` [Compound I-3, 4-(2,6-difluorophenyl)-7-[(5-piperazin-1-yl-2-pyridyl)amino]-2,3-dihydropyrrolo [3,4-c]pyridin-1-one], 1000 to 5000 nM.
For `O=C1NCc2c(-c3ccccn3)ncc(Nc3ccc(N4CCNCC4)cn3)c21` [Compound I-4, 7-[(5-piperazin-1-yl-2-pyridyl)amino]-4-(2-pyridyl)-2,3-dihydropyrrolo [3,4-c]pyridin-1-one], the IC50 lay in the range of 1000 to 5000 nM.
For the compound `CS(=O)(=O)c1ncc(Nc2ccc(N3CCNCC3)cn2)c2c1CNC2=O` [Compound I-5, 4-methylsulfonyl-7-[(5-piperazin-1-yl-2-pyridyl)amino]-2,3-dihydropyrrolo [3,4-c]pyridin-1-one], the IC50 lay within 1000 to 5000 nM.
Consider `COc1ccc(-c2ncc(Nc3ccc(N4CCNCC4)cn3)c3c2CNC3=O)cc1` [Compound I-6, 4-(4-methoxyphenyl)-7-[(5-piperazin-1-yl-2-pyridyl)amino]-2,3-dihydropyrrolo [3,4-c]pyridin-1-one], for which the IC50 lay within 1000 to 5000 nM.
As to `O=C1NCc2c(-c3cccnc3)ncc(Nc3ccc(N4CCNCC4)cn3)c21` [Compound I-7, 7-[(5-piperazin-1-yl-2-pyridyl)amino]-4-(3-pyridyl)-2,3-dihydropyrrolo [3,4-c]pyridin-1-one], the IC50 lay in the range of 1000 to 5000 nM.
For `NC(=O)c1ncc(Nc2ccc(N3CCNCC3)cn2)c2c1CNC2=O` [Compound I-8, 1-oxo-7-[(5-piperazin-1-yl-2-pyridyl)amino]-2,3-dihydropyrrolo [3,4-c]pyridine-4-carboxamide], the IC50 is 1000 to 5000 nM.
As for `Cc1cc(-c2ncc(Nc3ccc(N4CCNCC4)cn3)c3c2CNC3=O)ccn1` [Compound I-9, 4-(2-methyl-4-pyridyl)-7-[(5-piperazin-1-yl-2-pyridyl)amino]-2,3-dihydropyrrolo [3,4-c]pyridin-1-one], the IC50 fell in the range of 1000 to 5000 nM.
On to `O=C1NCc2c(-c3ncco3)ncc(Nc3ccc(N4CCNCC4)cn3)c21` [Compound I-10, 4-oxazol-2-yl-7-[(5-piperazin-1-yl-2-pyridyl)amino]-2,3-dihydropyrrolo [3,4-c]pyridin-1-one], for which the IC50 lay within 1000 to 5000 nM.
With `O=C1NCc2c(-c3ccccc3)ncc(Nc3ccc(N4CCNCC4)cn3)c21` [Compound I-11, 4-phenyl-7-[(5-piperazin-1-yl-2-pyridyl)amino]-2,3-dihydropyrrolo [3,4-c]pyridin-1-one] the figure was 1000 to 5000 nM; with `O=C1NCc2c(C3CC3)ncc(Nc3ccc(N4CCNCC4)cn3)c21` [Compound I-12, 4-cyclopropyl-7-[(5-piperazin-1-yl-2-pyridyl)amino]-2,3-dihydropyrrolo [3,4-c]pyridin-1-one], 1000 to 5000 nM; with `O=C1NCc2c(-c3ccncc3)ncc(Nc3ccc(N4CCC(O)CC4)cn3)c21` [Compound I-13, 7-[[5-(4-hydroxy-1-piperidyl)-2-pyridyl]amino]-4-(4-pyridyl)-2,3-dihydropyrrolo [3,4-c]pyridin-1-one], 1000 to 5000 nM.
For the compound `O=C1NCc2c(-c3ccncc3)ncc(Nc3ccc(N4CCOCC4)cn3)c21` [Compound I-14, 7-[(5-morpholino-2-pyridyl)amino]-4-(4-pyridyl)-2,3-dihydropyrrolo [3,4-c]pyridin-1-one], the IC50 lay within 1000 to 5000 nM.
For the compound `CN1CCN(c2ccc(Nc3cnc(-c4ccncc4)c4c3C(=O)NC4)nc2)CC1` [Compound I-15, 7-[[5-(4-methylpiperazin-1-yl)-2-pyridyl]amino]-4-(4-pyridyl)-2,3-dihydropyrrolo [3,4-c]pyridin-1-one], the IC50 fell in the range of 1000 to 5000 nM.
For the compound `O=C1NCc2c(N3CCOCC3)ncc(Nc3ccc(N4CCNCC4)cn3)c21` [Compound I-16, 4-morpholino-7-[(5-piperazin-1-yl-2-pyridyl)amino]-2,3-dihydropyrrolo [3,4-c]pyridin-1-one], the IC50 lay within 1000 to 5000 nM.
Take `Cn1cc(-c2ncc(Nc3ccc(N4CCNCC4)cn3)c3c2CNC3=O)cn1` [Compound I-17, 4-(1-methylpyrazol-4-yl)-7-[(5-piperazin-1-yl-2-pyridyl)amino]-2,3-dihydropyrrolo [3,4-c]pyridin-1-one]: the IC50 lay in the range of 1000 to 5000 nM.
As to `O=C1NCc2c(-c3cnco3)ncc(Nc3ccc(N4CCNCC4)cn3)c21` [Compound I-18, 4-oxazol-5-yl-7-[(5-piperazin-1-yl-2-pyridyl)amino]-2,3-dihydropyrrolo [3,4-c]pyridin-1-one], the IC50 is 1000 to 5000 nM.
With `COc1cccc(-c2ncc(Nc3ccc(N4CCN(C)CC4)cn3)c3c2CNC3=O)c1OC` [Compound I-19, 4-(2,3-dimethoxyphenyl)-7-[[5-(4-methylpiperazin-1-yl)-2-pyridyl]amino]-2,3-dihydropyrrolo [3,4-c]pyridin-1-one], the IC50 was 1000 to 5000 nM.
On to `COc1cccc(-c2ncc(Nc3ccc(N4CCNCC4)cn3)c3c2CNC3=O)c1OC` [Compound I-20, 4-(2,3-dimethoxyphenyl)-7-[(5-piperazin-1-yl-2-pyridyl)amino]-2,3-dihydropyrrolo [3,4-c]pyridin-1-one], for which the IC50 fell in the range of 1000 to 5000 nM.
As to `CCc1cnc(C)cc1-c1ncc(Nc2ccc(N3CCNCC3)cn2)c2c1CNC2=O` [Compound I-21, 4-(5-ethyl-2-methyl-4-pyridyl)-7-[(5-piperazin-1-yl-2-pyridyl)amino]-2,3-dihydropyrrolo [3,4-c]pyridin-1-one], the IC50 was 1000 to 5000 nM.
On to `CN1CCN(c2ccc(Nc3cnc(-c4ccncc4F)c4c3C(=O)NC4)nc2)CC1` [Compound I-22, 4-(3-fluoro-4-pyridyl)-7-[[5-(4-methylpiperazin-1-yl)-2-pyridyl]amino]-2,3-dihydropyrrolo [3,4-c]pyridin-1-one], for which the IC50 is 1000 to 5000 nM.
As for `CN1CCN(c2ccc(Nc3cnc(-c4cc[nH]c4)c4c3C(=O)NC4)nc2)CC1` [Compound I-23, 7-[[5-(4-methylpiperazin-1-yl)-2-pyridyl]amino]-4-(1H-pyrrol-3-yl)-2,3-dihydropyrrolo [3,4-c]pyridin-1-one], the IC50 is below 1000 nM.
Turning to `CCN1CCN(Cc2ccc(NC(=O)c3ccc(-c4ncc(Nc5ccc(N6CCN(C)CC6)cn5)c5c4CNC5=O)cc3)cc2C(F)(F)F)CC1` [Compound I-24], the IC50 is below 1000 nM.
With `CN1CCN(c2ccc(Nc3ccc(-c4ccncc4)c4c3C(=O)NC4)nc2)CC1` [Compound I-25, 7-[[5-(4-methylpiperazin-1-yl)-2-pyridyl]amino]-4-(4-pyridyl) isoindolin-1-one] the figure was below 1000 nM; with `O=C1NCc2c(-c3ccncc3)ccc(Nc3ccc(N4CCOCC4)cn3)c21` [Compound I-26, 7-[(5-morpholino-2-pyridyl)amino]-4-(4-pyridyl) isoindolin-1-one], below 1000 nM; with `O=C1NCc2c(-c3ccncc3)ccc(Nc3ccc(N4CCNCC4)cn3)c21` [Compound I-27, 7-[(5-piperazin-1-yl-2-pyridyl)amino]-4-(4-pyridyl) isoindolin-1-one], below 1000 nM.
For the compound `O=C1NCc2c(-c3ccncc3)ccc(Nc3ccc(N4CCC(O)CC4)cn3)c21` [Compound I-28, 7-[[5-(4-hydroxy-1-piperidyl)-2-pyridyl]amino]-4-(4-pyridyl) isoindolin-1-one], the IC50 was below 1000 nM.
Consider `CN1CCN(c2ccc(Nc3ccc(-c4ccccc4)c4c3C(=O)NC4)nc2)CC1` [Compound I-29, 7-[[5-(4-methylpiperazin-1-yl)-2-pyridyl]amino]-4-phenyl-isoindolin-1-one], for which the IC50 is below 1000 nM.
For the compound `CN1CCN(c2ccc(Nc3ccc(-c4cccnc4)c4c3C(=O)NC4)nc2)CC1` [Compound I-30, 7-[[5-(4-methylpiperazin-1-yl)-2-pyridyl]amino]-4-(3-pyridyl) isoindolin-1-one], the IC50 was below 1000 nM.
For the compound `CN1CCN(c2ccc(Nc3ccc(-c4ccccn4)c4c3C(=O)NC4)nc2)CC1` [Compound I-31, 7-[[5-(4-methylpiperazin-1-yl)-2-pyridyl]amino]-4-(2-pyridyl) isoindolin-1-one], the IC50 was below 1000 nM.
`CN1CCN(c2ccc(Nc3ccc(-c4ccnc(N5CCOCC5)c4)c4c3C(=O)NC4)nc2)CC1` [Compound I-32, 7-[[5-(4-methylpiperazin-1-yl)-2-pyridyl]amino]-4-(2-morpholino-4-pyridyl) isoindolin-1-one]: the IC50 was below 1000 nM.
Take `CN1CCN(c2ccc(Nc3ccc(-c4ccnc(N5CCC6(CCOCC6)CC5)c4)c4c3C(=O)NC4)nc2)CC1` [Compound I-33, 7-[[5-(4-methylpiperazin-1-yl)-2-pyridyl]amino]-4-[2-(3-oxa-9-azaspiro[5. 5]undecan-9-yl)-4-pyridyl] isoindolin-1-one]: the IC50 lay within 1000 to 5000 nM.
For the compound `CN1CCN(c2ccc(Nc3ccc(-c4ccnc(N5CCCCC5)c4)c4c3C(=O)NC4)nc2)CC1` [Compound I-34, 7-[[5-(4-methylpiperazin-1-yl)-2-pyridyl]amino]-4-[2-(1-piperidyl)-4-pyridyl] isoindolin-1-one], the IC50 was below 1000 nM.

For the origin of these results see patent publication US11926625B2, “HPK1 antagonists and uses thereof” (Nimbus Saturn, Inc., priority 2021, dated 2024).
